ChEMBL document CHEMBL3774318, “Synthesis and antiproliferative activity of goniobutenolides A and B, 5-halogenated crassalactone D derivatives and the corresponding 7-epimers” (Eur J Med Chem, 2016)
pIC50: −log10 of the molar value.

What was measured:
[1] = Cytotoxicity against human HL60 cells assessed as cell growth inhibition after 72 hrs by MTT assay; format: functional, cell-based; conditions: HL-60, 72 h
[2] = Cytotoxicity against human Jurkat T cells assessed as cell growth inhibition after 72 hrs by MTT assay; format: functional, cell-based

For `COc1cccc2c1C(=O)c1c(O)c3c(c(O)c1C2=O)C[C@@](O)(C(=O)CO)C[C@@H]3O[C@H]1C[C@H](N)[C@H](O)[C@H](C)O1` [DOXORUBICIN], the pIC50 [1] was 6.04 and the pIC50 [2] was 7.52.
